From paper PMC12180637, “Active peptides of TSP-1 inhibit retinal angiogenesis through the CD36 pathway in a rat model of choroidal neovascularization” (PLOS One, 2025)
“And” between values parts separate entries of the source, which are not always exact repeats. Equal entries are not always repeated. Square brackets hold non-standard residues; d marks the D form. Nva = CCC[C@H](N)C(=O)O; Sar = CNCC(=O)O

Legend:
[1] = tested on: RF/6A cells; assay: CCK-8 cell viability assay; format: cell-based; conditions: CCK-8, different concentrations of recombinant human VEGF165 (S2 Fig A)
Protocol: (§1) RF/6A cells were obtained from Cell Cook, China. The cells were maintained in minimum essential medium supplemented with 10% fetal Bovine serum (Viva Cell, China) and 1% penicillin-streptomycin solution (Viva Cell, China). Additionally, the samples were cultured in an incubator under the condition of 37 °C and 5% CO2.
(§2) The Cell Counting Kit-8 (CCK-8) from Proteintech (China) and 5-ethynyl-2′-deoxyuridine (EdU)-488™ kit from Beyotime (China) were employed for the assessment of the proliferative viability of RF/6A cell. Additionally, 10^4 cells were plated in 96-well plates. After 24 h of intervention, according to different groups, CCK-8 detection reagent was added, and the optical density was recorded at 450 nm during the following 4 h. Regarding the EdU assay, 2 × 10^4 cells were cultured in 24-well plates after 24 h of intervention according to different groups. Firstly, the EdU working solution (20μM) preheated at 37 ° C was combined with medium at the ratio of 1:1. Secondly, the cells were washed three times with (phosphate buffered saline) PBS after the fixing with 4% paraformaldehyde for 15 min. Subsequently, the samples were permeabilized with PBS that contained 0.3% Triton X-100 for 10 min, followed by three times of washing with PBS, after which the EdU detection was conducted. […] Finally, fluorescence detection was performed after nuclear staining by Hoechst 33342.

[2] = tested on: CD36 knockdown RF/6A cells; assay: EdU assay in CD36 knockdown cells; format: cell-based; conditions: Fig 5 data, exogenous VEGF alone, single replicates (n = 4)
Protocol: The Cell Counting Kit-8 (CCK-8) from Proteintech (China) and 5-ethynyl-2′-deoxyuridine (EdU)-488™ kit from Beyotime (China) were employed for the assessment of the proliferative viability of RF/6A cell. Additionally, 10^4 cells were plated in 96-well plates. After 24 h of intervention, according to different groups, CCK-8 detection reagent was added, and the optical density was recorded at 450 nm during the following 4 h. Regarding the EdU assay, 2 × 10^4 cells were cultured in 24-well plates after 24 h of intervention according to different groups. Firstly, the EdU working solution (20μM) preheated at 37 ° C was combined with medium at the ratio of 1:1. Secondly, the cells were washed three times with (phosphate buffered saline) PBS after the fixing with 4% paraformaldehyde for 15 min. Subsequently, the samples were permeabilized with PBS that contained 0.3% Triton X-100 for 10 min, followed by three times of washing with PBS, after which the EdU detection was conducted. Whereafter, 100 μL Click reaction solution was added to each well and incubated at room temperature in the dark for 30 min, followed by washing again with PBS, the Click reaction solution configuration method was shown in Table 1. Finally, fluorescence detection was performed after nuclear staining by Hoechst 33342. […]

[3] = tested on: RF/6A cells; assay: Wound-healing assay; format: cell-based; conditions: 1 ng/mL exogenous VEGF, 24 h
Protocol: as §1
After the drawing of 3 parallel lines at the external bottom surface of a 6-well plate, 4 × 10^5 RF/6A cells were seeded in it and incubated to a density of 80–90%. Next, scratches perpendicular to the drawn lines were made at the bottom of each well by a 200 μL pipette tip. Subsequently, the wells were rinsed three times with PBS to eliminate the floating cells. Whereafter, the medium was replaced with the serum that contained 1% fetal bovine. The wound healing process was assessed at the time point of 0 h and 24 h, alongside the acquirement of microscope images at 10× for the record and statistical analysis of the scratch distance. Additionally, the scratch healing rate was calculated as follows:
Scratch_healing_rate=0h_scratch_distance−24h_scratch_distance/0h_scratch_distance100% (1)

[4] = tested on: VEGF; assay: Western blot of VEGF in RF/6A cells; format: cell-based; conditions: exogenous VEGF 1 ng/mL
Protocol: (§3) Western blot analysis was employed in this study for the assessment of the expression levels of proteins. Total protein was extracted with Radioimmunoprecipitation (RIPA) buffer (Solarbio, China) that contained phenylmethanesulfonyl fluoride (PMSF), followed by separation by 10% sodium dodecyl sulfate–polyacrylamide gel electrophoresis (SDS-PAGE, Yazyme, China). Additionally, the constant pressure of 80 V was used for 40–50 min during the electrophoresis of the proteins in compression gel. Besides, the voltage was adjusted to 120 V after the entering of proteins to the separating gel. Subsequently, proteins were transferred onto a polyvinylidene difluoride (PVDF) membrane (Millipore, USA), and the operation time was determined according to the molecular weight of the protein (VEGF-55 min, CD31-91 min). The membrane was blocked with 5% non-fat milk for 2 h and incubated with primary antibodies overnight at 4 °C, and the primary antibody was diluted with Tris-Buffered Saline with Tween 20 (TBST) following the instructions. Subsequently, the samples were washed three times with TBST, incubated with the corresponding secondary antibody for 90 min at room temperature, and washed three times with TBST. Besides, Electrochemiluminescence (Invitrogen iBright™ FL1500) was used for the visualization of proteins, followed by the imaging analysis of the experimental results. […]

[5] = tested on: RF/6A cells; assay: EdU proliferation assay; format: cell-based; conditions: Fig 2 data, 1 ng/mL exogenous VEGF alone, 24 h, single replicates (n = 4)
Protocol: as §1, §2

[6] = stated in brackets for the recombinant human VEGF165 protein used; no test or source described; cited from earlier work
Protocol: CCK-8 and EdU assays were conducted to evaluate the cellular proliferation after a 24 h exposure to exogenous VEGF, which was amined to analyze the impact of 10 μg/mL VR-13 peptide on RF/6A cell proliferation induced through exogenous VEGF.

[7] = tested on: RF/6A cells; assay: Flow cytometry, total apoptosis rate; format: cell-based
[8] = tested on: CD31; assay: Western blot of CD31 in RF/6A cells; format: cell-based; conditions: exogenous VEGF 1 ng/mL
Protocol: as §3

[9] = tested on: tumor growth; conditions: cited from earlier work; for apoptotic index of endothelial cells (in words): in vivo studies, mouse tumor models; for tumor growth (in words): syngeneic and xenograft mouse models
From the text: (§4) Additionally, TSP-1 could interact with various ligands, including extrac ...

[10] = tested on: VEGF-induced angiogenesis; conditions: cited from earlier work
From the text: as §4

Substance: VEGF
- optimal concentration for inducing significant proliferation of RF/6A [1]: 1 ng/mL
- EdU positive(%) [2]: 24% and 28.99% and 30.32% and 23.72%
- migration of RF/6A cells exposed to VEGF (in words) [3]: strong cell migration ability
- VEGF expression in RF/6A cells after exogenous VEGF (in words) [4]: significantly upregulated
- EdU positive(%) [5]: 37.99% and 38.36% and 36.47% and 33.64%
- EC50 [6]: 0.3 to 3.75 ng/mL
- apoptosis rate ([7]; Fig 3 data, RF/6A, 1 ng/mL exogenous VEGF alone, single replicates (n = 6)): 8.99 and 11.46 and 10.46 and 11.80 and 11.97 and 12.71
- apoptosis of RF/6A cells after exogenous VEGF (in words) ([7]; exogenous VEGF): didn’t exhibit a connection with apoptosis
- CD31 expression in RF/6A cells after exogenous VEGF (in words) [8]: significantly upregulated

Substance: Ac-[Sar]GV[dI]T[Nva]IRP-NHEt [ABT-526, anti-angiogenic nonapeptide based on TSP-1 type I repeats]
- apoptotic index of endothelial cells (in words) [9]: increase of the apoptotic index of endothelial cells
- tumor growth (in words) [9]: slow down the tumor growth

Substance: Ac-Sar-Gly-Val-Dallolle-Thr-Nva-Ile-Arg-Pro-NHEt [ABT-510, anti-angiogenic nonapeptide based on TSP-1 type I repeats]
- apoptotic index of endothelial cells (in words) [9]: increase of the apoptotic index of endothelial cells
- tumor growth (in words) [9]: slow down the tumor growth
- VEGF-induced angiogenesis (in words) [10]: inhibit VEGF-induced angiogenesis
